Assay [1] addresses T1, baculovirus-expressed ALK (Homo sapiens, UniProt Q9UM73).
T1 construct: host or cells: baculovirus expression system
Description: ALK Kinase Assay (ELISA-type, time-resolved fluorescence). Format: biochemical. The method, boiled down:
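Substrate coating: phospholipase C-γ, 10 μg/mL in TBS. Kinase step: 30 ng/ml ALK, 15 min, 37° C. Detection and analysis: Eu-N1 PT66 antibody, with IC50 fitted as a sigmoidal variable-slope dose-response curve.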
(In an ELISA, binding on a coated surface is turned into a signal by an enzyme label.)

Assay [2] concerns the target T2, c-Met (cytoplasmic domain) (Homo sapiens, UniProt P08581).
T2 construct: 10 ng/mL c-Met (cytoplasmic domain, Invitrogen Corporation #PV3143); purchased Invitrogen Corporation PV3143
Description: c-Met Kinase Assay (same methods as for ALK, with modifications). It is filed as biochemical. Here is the method:
Briefly, each 96-well plate was coated with 100 μL/well of 10 μg/mL substrate (phospholipase C-γ) in Tris-buffered saline (TBS). […] The reaction was initiated by adding enzyme (30 ng/ml ALK) and was allowed to proceed at 37° C. for 15 minutes. Detection of the phosphorylated product was performed by adding 100 μl/well of Eu-N1 labeled PT66 antibody (Perkin Elmer # AD0041).
Data analysis was performed using ActivityBase (IDBS, Guilford, UK). IC50 values were calculated by plotting percent inhibition versus log10 of the concentration of compound and fitting to the nonlinear regression sigmoidal dose-response (variable slope) equation in XLFit (IDBS, Guilford, UK).
Reactions were initiated with 10 ng/mL c-Met (cytoplasmic domain, Invitrogen Corporation #PV3143).

Setting [3] is: ALK kinase inhibition, 1 μM ATP (Km level), read-out: ALK Activity.
Where [4] appears, read: c-Met kinase inhibition, 1 μM ATP (Km level), read-out: cMet Activity.
Where [5] appears, read: 1 μM ATP (Km level), read-out: ALK Activity (ALK Kinase Inhibition, IC50).
The mark [6] stands for this setting: 1 μM ATP (Km level), read-out: cMet Activity (c-Met Kinase Inhibition, IC50).
The mark [7] stands for this setting: 1 μM ATP (Km level), 30 ng/ml ALK, 37° C., 15 minutes, read-out: ALK Activity (ALK kinase inhibition, IC50 class).
[8] abbreviates: 1 μM ATP (Km level), 10 ng/mL c-Met, read-out: cMet Activity (c-Met kinase inhibition, IC50 class).
Setting [9] is: ALK kinase inhibition, 1 μM ATP, read-out: ALK Activity.
The mark [10] stands for this setting: c-Met kinase inhibition, 1 μM ATP, read-out: cMet Activity.

Where two headings read alike, the source gives them in different places.

T1 sequence (Q9UM73 19-1620): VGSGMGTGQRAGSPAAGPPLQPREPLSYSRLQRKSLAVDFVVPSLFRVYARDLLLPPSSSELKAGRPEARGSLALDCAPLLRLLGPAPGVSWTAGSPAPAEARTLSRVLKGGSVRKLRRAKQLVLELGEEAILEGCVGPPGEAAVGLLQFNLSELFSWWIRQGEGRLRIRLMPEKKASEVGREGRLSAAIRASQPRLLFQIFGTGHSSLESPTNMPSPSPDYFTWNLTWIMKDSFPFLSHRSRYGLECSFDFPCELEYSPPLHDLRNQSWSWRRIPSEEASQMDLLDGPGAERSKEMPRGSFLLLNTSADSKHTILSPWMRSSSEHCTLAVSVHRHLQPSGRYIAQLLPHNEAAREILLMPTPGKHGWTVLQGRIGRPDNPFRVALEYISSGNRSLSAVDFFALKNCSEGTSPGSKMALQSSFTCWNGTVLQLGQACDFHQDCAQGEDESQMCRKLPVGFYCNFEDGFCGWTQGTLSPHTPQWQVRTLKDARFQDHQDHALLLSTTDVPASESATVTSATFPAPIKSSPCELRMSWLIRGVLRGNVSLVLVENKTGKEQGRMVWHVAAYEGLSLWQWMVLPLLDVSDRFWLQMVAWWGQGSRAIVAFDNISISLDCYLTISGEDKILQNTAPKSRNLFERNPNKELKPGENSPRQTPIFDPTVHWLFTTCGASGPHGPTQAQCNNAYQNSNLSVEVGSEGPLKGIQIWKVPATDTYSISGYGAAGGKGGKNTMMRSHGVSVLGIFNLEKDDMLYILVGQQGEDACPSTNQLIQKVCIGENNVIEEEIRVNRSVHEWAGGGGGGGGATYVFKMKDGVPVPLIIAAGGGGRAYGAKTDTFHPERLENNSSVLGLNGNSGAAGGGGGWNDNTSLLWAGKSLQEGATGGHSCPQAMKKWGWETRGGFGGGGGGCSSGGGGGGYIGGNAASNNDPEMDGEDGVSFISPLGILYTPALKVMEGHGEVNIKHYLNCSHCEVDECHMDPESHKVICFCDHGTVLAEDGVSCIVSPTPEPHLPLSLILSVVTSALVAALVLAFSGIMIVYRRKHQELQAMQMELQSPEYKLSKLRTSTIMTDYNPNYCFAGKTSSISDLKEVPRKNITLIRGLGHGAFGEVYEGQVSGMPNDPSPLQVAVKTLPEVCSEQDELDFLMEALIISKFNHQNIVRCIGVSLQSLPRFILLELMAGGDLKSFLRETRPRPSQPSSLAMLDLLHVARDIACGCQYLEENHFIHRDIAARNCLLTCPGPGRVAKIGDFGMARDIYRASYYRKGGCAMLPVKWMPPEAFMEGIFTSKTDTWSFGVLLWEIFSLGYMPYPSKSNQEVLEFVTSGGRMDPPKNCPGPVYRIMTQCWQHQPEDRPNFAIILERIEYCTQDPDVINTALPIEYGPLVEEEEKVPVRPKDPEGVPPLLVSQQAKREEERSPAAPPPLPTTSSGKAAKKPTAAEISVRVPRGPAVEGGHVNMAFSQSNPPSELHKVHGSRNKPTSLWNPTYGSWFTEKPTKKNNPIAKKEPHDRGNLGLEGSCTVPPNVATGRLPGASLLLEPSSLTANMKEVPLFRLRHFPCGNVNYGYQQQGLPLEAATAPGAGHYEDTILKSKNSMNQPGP
T2 sequence (P08581 956-1390 limits assumed): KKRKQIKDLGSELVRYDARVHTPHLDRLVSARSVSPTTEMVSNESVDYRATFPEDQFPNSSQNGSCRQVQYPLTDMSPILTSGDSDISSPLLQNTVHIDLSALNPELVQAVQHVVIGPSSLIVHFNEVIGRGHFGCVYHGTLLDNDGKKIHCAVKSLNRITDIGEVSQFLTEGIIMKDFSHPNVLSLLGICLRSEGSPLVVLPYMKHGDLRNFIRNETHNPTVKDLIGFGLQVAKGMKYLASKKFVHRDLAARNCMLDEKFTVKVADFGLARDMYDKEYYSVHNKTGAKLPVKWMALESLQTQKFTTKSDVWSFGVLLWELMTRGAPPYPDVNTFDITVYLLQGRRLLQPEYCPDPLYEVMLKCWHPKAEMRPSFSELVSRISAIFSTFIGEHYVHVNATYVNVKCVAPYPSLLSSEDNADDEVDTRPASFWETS

For “2-[5-Chloro-2-(6-methoxy-2-oxo-2,3,4,5-tetrahydro-1H-benzo[b]azepin-7-ylamino)-pyrimidin-4-ylamino]-N-methyl-benzamide [Example 3]”, the IC50 in assay [1] (setting [3]) was less than 100 nM; in assay [2] (setting [4]) it was 1000 to 10000 nM.
As for “2-{5-Chloro-2-[1-methoxy-7-(4-methyl-piperazin-1-yl)-6,7,8,9-tetrahydro-5H-benzocyclohepten-2-ylamino]-pyrimidin-4-ylamino}-N,N-dimethyl-benzenesulfonamide [Example 912]”, the IC50 was less than 100 nM in assay [1] (setting [5]) and more than 10000 nM in assay [2] (setting [6]).
Regarding “3-({2-[5-Chloro-2-(1-ethyl-5,5-dimethyl-2-oxo-2,3,4,5-tetrahydro-1H-1-benzazepin-8-ylamino)-pyrimidin-4-ylamino]-3-fluoro-phenyl}-methyl-amino)-propionitrile [Example 1265]”, the figures for the IC50 in assay [1] (setting [7]) and in assay [2] (setting [8]) were 100 to 1000 nM and 1000 to 10000 nM, respectively.
Taken in the same sequence, the figures for “3-{2-[2-(1-Acetyl-4-oxo-1,2,3,4,5,6-hexahydro-1,5-benzodiazepin-8-ylamino)-5-chloro-pyrimidin-4-ylamino]-phenoxy}-propionitrile [Example 1237]” were less than 100 nM and 100 to 1000 nM.
Taken in the same sequence, the figures for “3-{5-Chloro-2-[3-(2-methoxy-ethyl)-2,3,4,5-tetrahydro-1H-benzo[d]azepin-7-ylamino]-pyrimidin-4-ylamino}-4-methyl-thiophene-2-carboxylic acid methylamide [Example 1363]” were less than 100 nM and less than 100 nM.
The matching figures for “5-Chloro-N(4)-(2-fluoro-6-methanesulfonyl-phenyl)-(2-fluoro-6-methanesulfonyl-phenyl)2,3,4,5-tetrahydro-1H-3-benzazepin-7-yl]-pyrimidine-2,4-diamine [Example 1262]”: 100 to 1000 nM and 1000 to 10000 nM.
Turning to “5-Chloro-N*2*,N*4*-bis-(3-ethyl-2,3,4,5-tetrahydro-1H-benzo[d]azepin-7-yl)-pyridine-2,4-diamine [Example 199]”, the IC50 in assay [1] (setting [3]) was less than 100 nM; in assay [2] (setting [4]), 1000 to 10000 nM.
Take “5-Chloro-N*2*-[1-methoxy-7-(2,2,2-trifluoro-ethylamino)-6,7,8,9-tetrahydro-5H-benzocyclohepten-2-yl]-N*4*-methyl-N*4*-[2-(propane-2-sulfonyl)-phenyl]-pyrimidine-2,4-diamine [Example 680]”: the IC50 in assay [1] (setting [5]) is less than 100 nM; in assay [2] (setting [6]), more than 10000 nM.
The matching figures for “5-Chloro-N*2*-[7-(2,2-difluoro-ethylamino)-1-methoxy-6,7,8,9-tetrahydro-5H-benzocyclohepten-2-yl]-N*4*-methyl-N*4*-[2-(propane-2-sulfonyl)-phenyl]-pyrimidine-2,4-diamine [Example 678]”: less than 100 nM and more than 10000 nM.
Taken in the same sequence, the figures for “5-Chloro-N*4*-(2-ethyl-4-morpholin-4-yl-phenyl)-N*2*-[7-(2,2,2-trifluoro-ethylamino)-6,7,8,9-tetrahydro-5H-benzocyclohepten-2-yl]-pyrimidine-2,4-diamine [Example 652]” were less than 100 nM and more than 10000 nM.
In the case of “7-[5-Chloro-4-(2-methoxy-4-morpholin-4-yl-phenylamino)-pyrimidin-2-ylamino]-1-ethyl-5,5-dimethyl-1,3,4,5-tetrahydro-benzo[b]azepin-2-one [Example 393]”, the results for the IC50 in assay [1] (setting [3]) and in assay [2] (setting [4]) were less than 100 nM and more than 10000 nM, respectively.
With “8-[5-Chloro-4-(2-pyrazol-1-yl-phenylamino)-pyrimidin-2-ylamino]-3-methyl-1,3,4,5-tetrahydro-benzo[d]azepin-2-one [Example 1819]”, the IC50 in assay [1] (setting [9]) and in assay [2] (setting [10]) was 1000 to 10000 nM in each case.
Consider “8-{5-Chloro-4-[2-(2-morpholin-4-yl-ethoxy)-phenylamino]-pyrimidin-2-ylamino}-1,3,4,5-tetrahydro-benzo[b]azepin-2-one [Example 1464]”, for which the values for the IC50 in assay [1] (setting [9]) and in assay [2] (setting [10]) were 1000 to 10000 nM and more than 10000 nM, respectively.
For `CCC(C)N1C2CCC1c1cc(Nc3ncc(Cl)c(N[C@@H]4CCCC[C@H]4NS(C)(=O)=O)n3)ccc1C2` (mixture of isomers) [Example 84, N-{(1R,2R)-2-[2-(12-sec-Butyl-12-aza-tricyclo[7.2.1.0*2,7*]dodeca-2(7),3,5-trien-4-ylamino)-5-chloro-pyrimidin-4-ylamino]-cyclohexyl}-methanesulfonamide], the IC50 was less than 100 nM in assay [1] (setting [3]) and 100 to 1000 nM in assay [2] (setting [4]).
Consider `CS(=O)(=O)N[C@@H]1CCCC[C@H]1Nc1nc(Nc2ccc3c(c2)C2CCC3CN(C(=O)C(F)(F)F)C2)ncc1Cl` (mixture of isomers) [Example 292, N-((1R,2R)-2-{5-Chloro-2-[10-(2,2,2-trifluoro-acetyl)-10-aza-tricyclo[6.3.2.0*2,7*]trideca-2,4,6-trien-4-ylamino]-pyrimidin-4-ylamino}-cyclohexyl)-methanesulfonamide], for which the IC50 in assay [1] (setting [3]) is less than 100 nM; in assay [2] (setting [4]), 1000 to 10000 nM.
The matching figures for `NC(=O)C1C2C=CC(C2)C1Nc1nc(Nc2ccc3c(c2)CCN(CC(O)C(F)(F)F)CC3)ncc1Cl` (mixture of isomers) [Example 334, (2-exo, 3-exo)-3-{5-Chloro-2-[3-((R)-3,3,3-trifluoro-2-hydroxy-propyl)-2,3,4,5-tetrahydro-1H-benzo[d]azepin-7-ylamino]-pyrimidin-4-ylamino}-bicyclo[2.2.1]hept-5-ene-2-carboxylic acid amide]: less than 100 nM and 100 to 1000 nM.
Taken in the same sequence, the figures for `COC(CN1CCc2ccc(Nc3ncc(Cl)c(NC4C5C=CC(C5)C4C(N)=O)n3)cc2CC1)C(F)(F)F` (mixture of isomers) [Example 338, (2-exo, 3-exo)-3-{5-Chloro-2-[3-((S)-3,3,3-trifluoro-2-methoxy-propyl)-2,3,4,5-tetrahydro-1H-benzo[d]azepin-7-ylamino]-pyrimidin-4-ylamino}-bicyclo[2.2.1]hept-5-ene-2-carboxylic acid amide] were less than 100 nM and 100 to 1000 nM.
As for `COc1c(Nc2ncc(Cl)c(N[C@@H]3CCCC[C@H]3NS(C)(=O)=O)n2)ccc2c1CCC(N1CCOCC1)CC2` (mixture of isomers) [Example 884, N-{(1R,2R)-2-[5-Chloro-2-(1-methoxy-7-morpholin-4-yl-6,7,8,9-tetrahydro-5H-benzocyclohepten-2-ylamino)-pyrimidin-4-ylamino]-cyclohexyl}-methanesulfonamide], the IC50 in assay [1] (setting [5]) is less than 100 nM; in assay [2] (setting [6]), more than 10000 nM.
The matching figures for `COc1c(Nc2ncc(Cl)c(NC3CCCCNC3=O)n2)ccc2c1CCC(N1CCOCC1)CC2` (mixture of isomers) [Example 902, 3-[5-Chloro-2-(1-methoxy-7-morpholin-4-yl-6,7,8,9-tetrahydro-5H-benzocyclohepten-2-ylamino)-pyrimidin-4-ylamino]-azepan-2-one]: 100 to 1000 nM and more than 10000 nM.
The matching figures for `COc1c(Nc2ncc(Cl)c(Nc3ccccc3S(=O)(=O)N3CCC(O)C3)n2)ccc2c1CCC(N1CCOCC1)CC2` (mixture of isomers) [Example 906, 1-{2-[5-Chloro-2-(1-methoxy-7-morpholin-4-yl-6,7,8,9-tetrahydro-5H-benzocyclohepten-2-ylamino)-pyrimidin-4-ylamino]-benzenesulfonyl}-pyrrolidin-3-ol]: less than 100 nM and 1000 to 10000 nM.
Taken in the same sequence, the figures for `COc1c(Nc2ncc(Cl)c(Nc3ccccc3S(=O)(=O)N(C)C)n2)ccc2c1CCC(N1CCCC(O)C1)CC2` (mixture of isomers) [Example 907, 2-{5-Chloro-2-[7-(3-hydroxy-piperidin-1-yl)-1-methoxy-6,7,8,9-tetrahydro-5H-benzocyclohepten-2-ylamino]-pyrimidin-4-ylamino}-N,N-dimethyl-benzenesulfonamide] were less than 100 nM and more than 10000 nM.
For `COc1c(Nc2ncc(Cl)c(Nc3ccccc3S(=O)(=O)N3CCCC3)n2)ccc2c1CCC(N1CCCC(O)C1)CC2` (mixture of isomers) [Example 908, 1-(2-{5-Chloro-4-[2-(pyrrolidine-1-sulfonyl)-phenylamino]-pyrimidin-2-ylamino}-1-methoxy-6,7,8,9-tetrahydro-5H-benzocyclohepten-7-yl)-piperidin-3-ol], the IC50 was less than 100 nM in assay [1] (setting [5]) and 1000 to 10000 nM in assay [2] (setting [6]).
On to `COc1cc(N2CCOCC2)ccc1Nc1nc(Nc2ccc3c(c2OC)CCC(N2CCCC(O)C2)CC3)ncc1Cl` (mixture of isomers) [Example 913, 1-{2-[5-Chloro-4-(2-methoxy-4-morpholin-4-yl-phenylamino)-pyrimidin-2-ylamino]-1-methoxy-6,7,8,9-tetrahydro-5H-benzocyclohepten-7-yl}-piperidin-3-ol], for which the IC50 is less than 100 nM in assay [1] (setting [5]) and more than 10000 nM in assay [2] (setting [6]).
